# Test results from ChEMBL document CHEMBL3885881, “DrugMatrix”.
# Species: Rattus norvegicus
# Test: DrugMatrix - Regimen: Daily Repeat
# Type: toxicity, organism-based, Sprague-Dawley
# Set-up: regimen Daily Repeat, gender Male, age 6-8 weeks
# Details: in vivo, po, route oral GAVAGE, vehicle .5 % CMC; for ABSOLUTE BASOPHIL / ABSOLUTE EOSINOPHIL / ABSOLUTE LYMPHOCYTE / ABSOLUTE MONOCYTE / ABSOLUTE SEGMENTED NEUTROPHIL / BASOPHIL / EOSINOPHIL / ERYTHROCYTE COUNT / HEMATOCRIT / HEMOGLOBIN / LEUKOCYTE COUNT / LYMPHOCYTE / MEAN CORPUSCULAR HEMOGLOBIN / MEAN CORPUSCULAR HEMOGLOBIN CONCENTRATION / MEAN CORPUSCULAR VOLUME / MONOCYTE / NEUTROPHIL / NUCLEATED RED BLOOD CELLS / PLATELET COUNT: tissue Blood; for ALANINE AMINOTRANSFERASE / ALBUMIN / ALKALINE PHOSPHATASE / ASPARTATE AMINOTRANSFERASE / BLOOD UREA NITROGEN / CARBON DIOXIDE / CHLORIDE / CHOLESTEROL / CREATINE PHOSPHOKINASE / CREATININE / GLUCOSE / LACTATE DEHYDROGENASE / LIPASE / PHOSPHORUS / POTASSIUM / SODIUM / TOTAL BILIRUBIN / TOTAL PROTEIN / URIC ACID: tissue Plasma
# [1] = 0 mg/kg, 72 h, dose level Control, time 3 day
# [2] = 0 mg/kg, 120 h, dose level Control, time 5 day
# [3] = 60 mg/kg, 72 h, dose level Low, time 3 day
# [4] = 60 mg/kg, 120 h, dose level Low, time 5 day
smiles,measurement,setting,value
CC(C)[C@H]1CC[C@H](C(=O)N[C@H](Cc2ccccc2)C(=O)O)CC1 [NATEGLINIDE],ABSOLUTE BASOPHIL,[1],0 CELLS/uL
same,ABSOLUTE EOSINOPHIL,[1],35.67 CELLS/uL
same,ABSOLUTE LYMPHOCYTE,[1],9125.17 CELLS/uL
same,ABSOLUTE MONOCYTE,[1],50.17 CELLS/uL
same,ABSOLUTE SEGMENTED NEUTROPHIL,[1],722.33 CELLS/uL
same,BASOPHIL,[1],0%
same,EOSINOPHIL,[1],0.33%
same,ERYTHROCYTE COUNT,[1],5.35 x10E6/uL
same,HEMATOCRIT,[1],33.58%
same,HEMOGLOBIN,[1],13.35 G/DL
same,LEUKOCYTE COUNT,[1],9.93 x10E3/uL
same,LYMPHOCYTE,[1],91.67%
same,MEAN CORPUSCULAR HEMOGLOBIN,[1],25 pg
same,MEAN CORPUSCULAR HEMOGLOBIN CONCENTRATION,[1],39.8 G/DL
same,MEAN CORPUSCULAR VOLUME,[1],62.77 fL
same,MONOCYTE,[1],0.67%
same,NEUTROPHIL,[1],7.33%
same,NUCLEATED RED BLOOD CELLS,[1],0 /100WBC
same,PLATELET COUNT,[1],866.17 x10E3/uL
same,ALANINE AMINOTRANSFERASE,[1],57.17 u/L
same,ALBUMIN,[1],4.22 G/DL
same,ALKALINE PHOSPHATASE,[1],391 u/L
same,ASPARTATE AMINOTRANSFERASE,[1],95.17 u/L
same,BLOOD UREA NITROGEN,[1],13.67 mg/dL
same,CARBON DIOXIDE,[1],30 mmol/L
same,CHLORIDE,[1],102.5 MEQ/L
same,CHOLESTEROL,[1],72 mg/dL
same,CREATINE PHOSPHOKINASE,[1],485.67 u/L
same,CREATININE,[1],0.27 mg/dL
same,GLUCOSE,[1],152 mg/dL
same,LACTATE DEHYDROGENASE,[1],372.67 u/L
same,LIPASE,[1],9.83 u/L
same,PHOSPHORUS,[1],12.47 mg/dL
same,POTASSIUM,[1],6.81 MEQ/L
same,SODIUM,[1],144.1 MEQ/L
same,TOTAL BILIRUBIN,[1],0.23 mg/dL
same,TOTAL PROTEIN,[1],5.93 G/DL
same,URIC ACID,[1],1.9 mg/dL
same,ABSOLUTE BASOPHIL,[2],0 CELLS/uL
same,ABSOLUTE EOSINOPHIL,[2],67.33 CELLS/uL
same,ABSOLUTE LYMPHOCYTE,[2],11419.17 CELLS/uL
same,ABSOLUTE MONOCYTE,[2],203.17 CELLS/uL
same,ABSOLUTE SEGMENTED NEUTROPHIL,[2],1327 CELLS/uL
same,BASOPHIL,[2],0%
same,EOSINOPHIL,[2],0.5%
same,ERYTHROCYTE COUNT,[2],5.65 x10E6/uL
same,HEMATOCRIT,[2],35.3%
same,HEMOGLOBIN,[2],13.98 G/DL
same,LEUKOCYTE COUNT,[2],13.02 x10E3/uL
same,LYMPHOCYTE,[2],88%
same,MEAN CORPUSCULAR HEMOGLOBIN,[2],24.78 pg
same,MEAN CORPUSCULAR HEMOGLOBIN CONCENTRATION,[2],39.63 G/DL
same,MEAN CORPUSCULAR VOLUME,[2],62.58 fL
same,MONOCYTE,[2],1.33%
same,NEUTROPHIL,[2],10.17%
same,NUCLEATED RED BLOOD CELLS,[2],0 /100WBC
same,PLATELET COUNT,[2],1213.83 x10E3/uL
same,ALANINE AMINOTRANSFERASE,[2],49.67 u/L
same,ALBUMIN,[2],4.28 G/DL
same,ALKALINE PHOSPHATASE,[2],362.33 u/L
same,ASPARTATE AMINOTRANSFERASE,[2],99 u/L
same,BLOOD UREA NITROGEN,[2],20.67 mg/dL
same,CARBON DIOXIDE,[2],26.33 mmol/L
same,CHLORIDE,[2],102 MEQ/L
same,CHOLESTEROL,[2],63.83 mg/dL
same,CREATINE PHOSPHOKINASE,[2],481.83 u/L
same,CREATININE,[2],0.21 mg/dL
same,GLUCOSE,[2],158 mg/dL
same,LACTATE DEHYDROGENASE,[2],656.33 u/L
same,LIPASE,[2],10.67 u/L
same,PHOSPHORUS,[2],12.27 mg/dL
same,POTASSIUM,[2],6.17 MEQ/L
same,SODIUM,[2],143.35 MEQ/L
same,TOTAL BILIRUBIN,[2],0.17 mg/dL
same,TOTAL PROTEIN,[2],6.13 G/DL
same,URIC ACID,[2],1.48 mg/dL
same,ABSOLUTE BASOPHIL,[3],0 CELLS/uL
same,ABSOLUTE EOSINOPHIL,[3],0 CELLS/uL
same,ABSOLUTE LYMPHOCYTE,[3],9045.33 CELLS/uL
same,ABSOLUTE MONOCYTE,[3],160.67 CELLS/uL
same,ABSOLUTE SEGMENTED NEUTROPHIL,[3],994 CELLS/uL
same,BASOPHIL,[3],0%
same,EOSINOPHIL,[3],0%
same,ERYTHROCYTE COUNT,[3],5.13 x10E6/uL
same,HEMATOCRIT,[3],32.57%
same,HEMOGLOBIN,[3],13.4 G/DL
same,LEUKOCYTE COUNT,[3],10.2 x10E3/uL
same,LYMPHOCYTE,[3],88.33%
same,MEAN CORPUSCULAR HEMOGLOBIN,[3],26.2 pg
same,MEAN CORPUSCULAR HEMOGLOBIN CONCENTRATION,[3],41.17 G/DL
same,MEAN CORPUSCULAR VOLUME,[3],63.67 fL
same,MONOCYTE,[3],1.67%
same,NEUTROPHIL,[3],10%
same,NUCLEATED RED BLOOD CELLS,[3],0 /100WBC
same,PLATELET COUNT,[3],720 x10E3/uL
same,ALANINE AMINOTRANSFERASE,[3],53.67 u/L
same,ALBUMIN,[3],4.27 G/DL
same,ALKALINE PHOSPHATASE,[3],449.67 u/L
same,ASPARTATE AMINOTRANSFERASE,[3],94.67 u/L
same,BLOOD UREA NITROGEN,[3],17 mg/dL
same,CARBON DIOXIDE,[3],30.33 mmol/L
same,CHLORIDE,[3],103.67 MEQ/L
same,CHOLESTEROL,[3],73.67 mg/dL
same,CREATINE PHOSPHOKINASE,[3],447.67 u/L
same,CREATININE,[3],0.2 mg/dL
same,GLUCOSE,[3],149 mg/dL
same,LACTATE DEHYDROGENASE,[3],345.33 u/L
same,LIPASE,[3],8.67 u/L
same,PHOSPHORUS,[3],13 mg/dL
same,POTASSIUM,[3],6.04 MEQ/L
same,SODIUM,[3],145.07 MEQ/L
same,TOTAL BILIRUBIN,[3],0.13 mg/dL
same,TOTAL PROTEIN,[3],5.87 G/DL
same,URIC ACID,[3],1.33 mg/dL
same,ABSOLUTE BASOPHIL,[4],0 CELLS/uL
same,ABSOLUTE EOSINOPHIL,[4],124 CELLS/uL
same,ABSOLUTE LYMPHOCYTE,[4],13794 CELLS/uL
same,ABSOLUTE MONOCYTE,[4],49 CELLS/uL
same,ABSOLUTE SEGMENTED NEUTROPHIL,[4],933 CELLS/uL
same,BASOPHIL,[4],0%
same,EOSINOPHIL,[4],0.67%
same,ERYTHROCYTE COUNT,[4],5.42 x10E6/uL
same,HEMATOCRIT,[4],34.03%
same,HEMOGLOBIN,[4],13.53 G/DL
same,LEUKOCYTE COUNT,[4],14.9 x10E3/uL
same,LYMPHOCYTE,[4],92.33%
same,MEAN CORPUSCULAR HEMOGLOBIN,[4],25 pg
same,MEAN CORPUSCULAR HEMOGLOBIN CONCENTRATION,[4],39.77 G/DL
same,MEAN CORPUSCULAR VOLUME,[4],62.87 fL
same,MONOCYTE,[4],0.33%
same,NEUTROPHIL,[4],6.67%
same,NUCLEATED RED BLOOD CELLS,[4],0 /100WBC
same,PLATELET COUNT,[4],1175.33 x10E3/uL
same,ALANINE AMINOTRANSFERASE,[4],57.67 u/L
same,ALBUMIN,[4],4.2 G/DL
same,ALKALINE PHOSPHATASE,[4],396.67 u/L
same,ASPARTATE AMINOTRANSFERASE,[4],87 u/L
same,BLOOD UREA NITROGEN,[4],20 mg/dL
same,CARBON DIOXIDE,[4],25 mmol/L
same,CHLORIDE,[4],104 MEQ/L
same,CHOLESTEROL,[4],56 mg/dL
same,CREATINE PHOSPHOKINASE,[4],315 u/L
same,CREATININE,[4],0.27 mg/dL
same,GLUCOSE,[4],169.67 mg/dL
same,LACTATE DEHYDROGENASE,[4],303.33 u/L
same,LIPASE,[4],10.67 u/L
same,PHOSPHORUS,[4],12.97 mg/dL
same,POTASSIUM,[4],5.61 MEQ/L
same,SODIUM,[4],144.73 MEQ/L
same,TOTAL BILIRUBIN,[4],0.23 mg/dL
same,TOTAL PROTEIN,[4],5.93 G/DL
same,URIC ACID,[4],1.37 mg/dL
